From PubChem BioAssay (NCI)
Where “and” joins values, the source holds several entries; their conditions need not be identical. Equal entries are not always repeated.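 Test compounds were applied to cells in 96-well plates for 48 hours at 5 doses. At the GI50, growth is halved. TGI: concentration producing complete growth inhibition.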

Assays:
Assay in all cases: DTP human tumour cell line panel, 48 h
[1] = tested on: T-47D breast
[2] = tested on: KM20L2 colon
[3] = tested on: MDA-N
[4] = tested on: HOP-18 NSCLC
[5] = tested on: XF 498 CNS
[6] = tested on: DLD-1 colon
[7] = tested on: LXFL 529 NSCLC
[8] = tested on: DMS 114 small cell lung

With `O=C1c2ccccc2-c2c1c1ccccc1c(=O)n2CCNCCCNCCn1c2c(c3ccccc3c1=O)C(=O)c1ccccc1-2` the GI50 [1] was 0.719 µM and the TGI [1] was 2.12 µM.

Compound `COC(=O)C(Cc1ccccc1)N/C=C\C(=O)c1ccc(Cl)cc1` (centres undefined) has a GI50 [1] of 37 µM and a TGI [1] of over 100 µM.

Work on `Cc1ccc([N+](=O)[O-])c2c(NCCCN(C)C)ccnc12` yielded a TGI [1] of over 100 µM, a TGI [2] of 75.2 µM and a TGI [3] of 98.4 µM.

Compound `O=C(Nc1ccc(S(=O)(=O)N[C@@H](C(=O)O)c2ccccc2)cc1)c1ccc(F)cc1` has a TGI [4] of over 100 µM, a TGI [5] of over 100 µM and a TGI [6] of over 100 µM. It also gave a TGI [7] of over 100 µM and a TGI [2] of over 100 µM.

With `CCOC(=O)Cc1nc(/C(C#N)=C/c2ccco2)[nH]c(=O)c1C#N` the TGI [4] was over 100 µM, the TGI [6] was over 100 µM and the TGI [7] was over 100 µM. The TGI [2] was over 100 µM.

Compound `O=C1CCn2c([nH]c3cccc4cccc2c43)=N1` has a TGI [5] of over 100 µM, a TGI [8] of over 100 µM and a TGI [7] of over 100 µM. It also gave a TGI [2] of over 100 µM.

For `CC(=O)O[C@H]1C(=O)[C@@]2(C)[C@H]([C@H](OC(=O)c3ccccc3)[C@]3([O-])C[C@H](OC(=O)[C@H]([O-])[C@@H](NC(=O)c4ccccc4)c4ccccc4)C(C)=C1C3(C)C)[C@]1(OC(C)=O)CO[C@@H]1C[C@@H]2[O-].[Fe+3]`, the GI50 [1] was 0.0802 µM and 0.0744 µM and the TGI [1] was 65 µM and 95.7 µM.

`C=CC(=O)Nc1cccc(Nc2nc(Nc3ccc(OCCOC)cc3)ncc2F)c1` was tested, and the GI50 [1] was 1.7 µM and the TGI [1] was 8.9 µM.

`Oc1ccc(Cc2ccccc2)c2cccnc12` was tested, and the GI50 [1] was 3.6 µM and the TGI [1] was over 100 µM.

`CC1CCCC(C(=O)/C(=C/c2cccc(Cl)c2)C(=O)C(=O)O)C1` (centres undefined) was tested, and the TGI [4] was over 100 µM, the TGI [8] was 45.7 µM and the TGI [6] was 40.3 µM. The TGI [7] was 43 µM and the TGI [2] was 90 µM.

In the case of `CCCSc1cc(Cl)nc(N)n1`, the GI50 [1] is reported as over 100 µM and the TGI [1] is reported as over 100 µM.

For `N#Cc1c(-c2ccccc2)nc2c(c(-c3ccccc3)nn2-c2ccccc2)c1-c1ccc(O)cc1`, the GI50 [1] was 3.05 µM and the TGI [1] was 23.8 µM.

`CN1CCN(Cc2ccc(NC(=O)c3ccc(C(C)(C)C)c(C#Cc4cnc5cccnn45)c3)cc2C(F)(F)F)CC1` was tested, and the GI50 [1] was 2.02 µM and the TGI [1] was 5.41 µM.

Compound `CCn1c(-c2nonc2N)nc2ccc(F)cc21` has a GI50 [1] of over 25 µM and a TGI [1] of over 25 µM.

`CC(=O)[CH-]C(C)=O.CC(=O)[CH-]C(C)=O.N=CC=N.[Sn+2]` was tested, and the GI50 [4] was 11.5 µM, the TGI [4] was 23.7 µM and the GI50 [5] was 6.49 µM. The TGI [5] was 16.5 µM, the GI50 [8] was 2.32 µM and the TGI [8] was 5.17 µM. The GI50 [6] was 1.71 µM, the TGI [6] was 3.26 µM and the GI50 [1] was 1.23 µM. The TGI [1] was 2.62 µM, the GI50 [7] was 1.32 µM and the TGI [7] was 2.6 µM. The GI50 [2] was 8.54 µM, the TGI [2] was 20.9 µM and the GI50 [3] was 1.68 µM. The TGI [3] was 3.69 µM.

`CCCCCCNc1nc(NCCCCCC)c2[nH]c(NCCCCCC)nc2n1` was tested, and the GI50 [1] was 2.42 µM and the TGI [1] was 17.3 µM.

In the case of `Cn1c(N)nc2c(nc(OCc3ccccc3)n2C2OC(CO)C(O)C2O)c1=O` (centres undefined), the TGI [1] is reported as over 100 µM and the TGI [3] is reported as over 100 µM.

`CNC(=O)c1ccc(-c2cnc3ncc(Cc4ccc5ncccc5c4)n3n2)cc1F` gave a GI50 [1] of over 100 µM and a TGI [1] of over 100 µM.

`CS(=O)(=O)Nc1ccc(-c2ccc3c(NC(=O)C4CC4)n[nH]c3c2)cc1` gave a GI50 [1] of over 13.2 µM and a TGI [1] of over 25 µM.

Work on `CC(O)CN1C(=O)NC(Cc2ccccc2)C1=O` (centres undefined) yielded a TGI [4] of over 100 µM, a TGI [5] of over 100 µM and a TGI [8] of over 100 µM. It also gave a TGI [6] of over 100 µM, a TGI [7] of over 100 µM and a TGI [2] of over 100 µM.

With `Cc1ccc2/c(=C/c3ccc(N(C)C)cc3)c3cc(-c4ccccc4)[n+](C)n3c2c1` the GI50 [1] was 0.0956 µM and the TGI [1] was over 100 µM.

In the case of `CNc1nc(NC2CCCC2)nc(Sc2ccc(OC)cc2)n1`, the GI50 [1] is reported as over 10 µM and the TGI [1] is reported as over 10 µM.

In the case of `COC(=O)c1c(O)ccc2[nH]c(C)c(C#N)c12`, the GI50 [1] is reported as 44.4 µM and the TGI [1] is reported as over 100 µM.

Work on `CC1(C)OC(=O)C=C([O-])O1.CC1(C)OC(=O)C=C([O-])O1.O=c1c(O)c(-c2ccc([O-])cc2[O-])oc2cc(O)cc(O)c12.[Ti+4]` yielded a GI50 [4] of 25 µM, a TGI [4] of over 100 µM and a GI50 [8] of 64.7 µM. The TGI [8] was over 100 µM, the GI50 [6] was over 100 µM and the TGI [6] was over 100 µM. The GI50 [7] was over 100 µM, the TGI [7] was over 100 µM and the GI50 [2] was over 100 µM. It also gave a TGI [2] of over 100 µM.

In the case of `CC/C=C\C/C=C\C1CC(=O)NCCCNCCCCN1` (centres undefined), the TGI [8] is reported as over 100 µM, the TGI [6] is reported as over 100 µM and the TGI [7] is reported as over 100 µM. The TGI [2] was over 100 µM.
